Data set [1] in a line: Thermodynamic solubility, shake-flask approach, phosphate buffer pH 7.4. The settings on record: pH 7.4, phosphate buffer 0.1 M, 20 °C, n = 1. It counts as physicochemical. An excerpt: (§1) 5. Pharmaceutically relevant properties modulation
(§2) Product analogues 5e, 6a-6k obtained after late-stage meta-C–H alkylation of the pharmaceutically active compound Emapunil (4e) were subjected to a range of fundamental in vitro drug discovery assays. To prevent hydrolysis of ester groups present on these analogues during biological testing (in order to compare the clearance and metabolic stability between these drug derivatives), their corresponding free acids 5e’, 6a’-6k’ were synthesised (see page S54) and subjected to similar assays.
The experimental methods used for these physicochemical & drug metabolism and pharmacokinetics (DMPK) assays are described below 11.
This method measures the thermodynamic solubility of compounds based on a shake-flask approach12.
The nature of the solid state was unknown in these experiments and may be subject to variability. The compounds were dissolved in DMSO (30 μL, 10 mM) in glass vials, and were dried using a Genevac vacuum evaporator (Genevac Ltd, Ipswich, UK). When the samples were dry, 300 μL of phosphate buffer (0.1 M, pH 7.4) was added to the glass vials. The vials were put on an Edmund Bühler shaker (Edmund Bühler GmbH, Hechingen, Germany) at 20 °C for 18 hours. Samples were filtered through a Whatman GF/B 96-well filter and 20 μL of filtrated samples were transferred to separate wells in a plate containing 180 μL MeCN/H2O (1:1). Standards were prepared by diluting the 10 mM compound solutions with MeCN/H2O (1:1) to 200 μM. Three further dilution steps of 10 times were applied to both the samples and standards and they were all analy sed by LC-MS/MS (Waters Xevo-TQS). Solubility was determined using the integrated peak areas of the samples in the linear MS response range. […]

Data set [2] in a line: Octanol/water partitioning (LogD), shake-flask method. It counts as physicochemical. The settings on record: n = 1.
Description: as §1, §2
(§3) The experimental methods used for these physicochemical & drug metabolism and pharmacokinetics (DMPK) assays are described below 11. […]
Octanol/water partitioning (LogD)
Partitioning of compounds between 1 -octanol and phosphate buffer (0.1 M, pH 7.4) at 20 °C were determined using a modified version of the shake -flask method described by Leo et al13. Compounds were dissolved in a 96 -well plate, in 400 μL octanol, and 400 μL of buffer was added to each well. The plate was vigorously stirred for 5 min and then put on an Edmund Bühler shaker (Edmund Bühler GmbH, Hechingen, Germany) at 20 °C for 18 hours. Aliquots of 5 μL octanol were transferred and diluted with 495 μL MeCN/H2O (1:1) and, to avoid contamination of the buffer, the rest of the octanol was removed before 150 μL of buffer samples were transferred. Octanol and buffer samples were diluted with MeCN/H2O (1:1) in four steps of 10 times to yield octanol samples diluted 10 2 to 106 times and buffer samples diluted 1 to 104 times. LC-MS/MS (Waters Xevo-TQS) was used for analysis, and distribution coefficient at pH 7.4 (LogD7.4) was calculated from the integrated peak areas of the samples in the linear MS response range. LogD7.4 results were reported as median values. […]

A short description of data set [3]: Fraction unbound in human plasma (Prot. Bind.), equilibrium dialysis. It counts as in vitro ADME. As to conditions: 5 μM, dialysis at 37 °C for 18 hours.
Description: as §1, §2, §3
Fraction unbound in human plasma (Prot. Bind.)
Equilibrium dialysis of compounds was used to assess the fraction unbound in human plasma. Stock solutions of compounds dissolved in DMSO were pooled into cassettes with up to 10 compounds in each cassette with a concentration of 1 mM. The pooled stock solutions were diluted in plasma to a compound concentration of 5 μM. Warfarin, propranolol and metoprolol were used as reference compounds in each run. The equilibrium dialysis device (RED, Thermo Fischer Scientific Inc., Rockford, USA) was used for dialysis against phosphate buffer (pH 7.4) at 37 °C for 18 hours. Calibration curves ranging from 0.001 to 7 μM were made using aliquots of the 7 μM spiked plasma pools that were transferred to a new plate followed by serial dilutions with blank plasma. Calibration curve samples and dialysis samples were precipitated with MeCN and after centrifugation, supernatants were removed and analysed using LC-MS/MS (Waters Xevo-TQS). Fraction unbound in the incubation was calculated as the concentration in the media buffer sample divided by the concentration in the plasma sample. The fraction unbound was reported as the median value.
In general terms: Equilibrium dialysis compares concentrations on both sides of a semipermeable membrane.

Data set [4] in a line: Metabolic stability in human liver microsomes (CLint HLM). It counts as in vitro ADME. The settings on record: 1 mg/mL microsomal protein, 1 mM NADPH, 37 °C; for microsomal CLint at 1 μM: both sexes, human, liver microsomes, pH 7.4, measured on the labelled compound itself, n = 1, read-out: CLint HLM (intrinsic clearance in human liver microsomes); for CLint HLM (intrinsic clearance in human liver microsomes): measured on the labelled compound itself, 1 μM, n = 1. On the procedure:
Metabolic stability in human liver microsomes (CLint HLM)
Human liver microsomes were defrosted on ice and diluted to 1 mg/mL of microsomal protein in phosphate buffer (0.1 M, pH 7.4). Compounds at 1 μM were incubated with the liver microsome suspensions and 1 mM NADPH at 37 °C in a 96-well plate. At 0.5, 5, 10, 15, 20 and 30 min, aliquots of 30 μL were transferred to a 96-well plate containing 120 μL MeCN. This plate was centrifuged for 20 min and supernatant was removed and diluted with H2O (1:1) before analysis by LC-MS/MS (Waters Xevo-TQS). Peak areas were determined from extracted ion chromatograms, and the in vitro intrinsic clearance (in vitro CLint, in μL/min/mg microsomal protein) of parent compound was calculated from the slope in the regression analysis of the natural logarithm of parent concentration vs. time curve.
Human Liver Microsomes (InVitroCYPTM 150-Donor, Mixed Gender) were harvested and supplied by BioIVT (Product No. X008070, Lot No. QQY). […]
(§4) The modulation of pharmaceutically relevant properties on meta-C–H alkylation is shown below in Supplementary Fig. 68, with a selection of physicochemical and DMPK data including solubility , LogD, human plasma protein binding (Prot. Bind.) and intrinsic clearance (CLint) in human liver microsomes (HLM) or rat hepatocytes (Rat Hep.) .
For orientation: Liver microsomes are vesicles of endoplasmic reticulum, rich in cytochrome P450 enzymes.

A short description of data set [5]: Metabolic stability in male Han Wistar rat hepatocytes (CLint Rat Hep.). It counts as in vitro ADME. The settings on record: measured on the labelled compound itself, 1 μM, 10^6 viable cells/mL, 37 °C, n = 1. On the procedure:
Metabolic stability in male Han Wistar rat hepatocytes (CLint Rat Hep.) Hepatocyte metabolic stability was determined in accordance with the method described by Jacobson et al14. Cryopreserved hepatocytes at a concentration of 10 6 viable cells/mL were used. After thawing, hepatocytes were incubated for 10 min to warm to 37 °C, and compounds dissolved in MeCN were […]
incubation system was mixed and 20 μL aliquots were transferred at each time point to wells in a separate plate filled with 80 μL MeCN to stop the reaction. The quenching plate was then vortexed followed by centrifugation, and supernatants were analysed by LC-MS/MS (Waters Xevo-TQS). Peak areas were determined from extracted ion chromatograms, and the in vitro intrinsic clearance (in vitro CLint, in μL/min/10^6 cells) of parent compound was calculated from the slope in the regression analysis of the natural logarithm of parent concentration vs. time curve. Rat Hepatocytes (Cryosuspension, Male Wistar Hannover ) were harvested and s upplied by BioIVT (Product No. M00065, Lot No. DVO).
as §4

The mark [6] stands for this setting: aqueous buffer, thermodynamic from solid.
Setting [7] is: 1-octanol / phosphate buffer pH 7.4, 20 °C.
Where [8] appears, read: 1-octanol/phosphate buffer, pH 7.4, 1-octanol / phosphate buffer pH 7.4, 20 °C.

For orientation: solubility means the concentration that dissolves in the medium under given conditions. A higher solubility goes with a readily soluble substance. The logD is the decadic logarithm of the distribution of all forms, ionised or not, between an organic phase and buffer at a given pH. A high value points to higher lipophilicity.

SMILES strings stand for the structures. Converted amounts (≈) assume the structure as drawn.

`CCOP(=O)(OCC)C(F)(F)c1cccc(-c2ncc3c(n2)n(CC(=O)N(CC)Cc2ccccc2)c(=O)n3C)c1` [6g]: the solubility at 18 h in data set [1] (setting [6]) was 46 µM (≈ 27 µg/mL); in data set [1], above 1000 µM. The “LogD (octanol)” value in data set [2] (setting [7]) was -0.8. The compound further returned a logD in data set [2] (setting [7]) of 4.4. In addition, the “Prot. Bind. (% free), human plasma protein binding” value (“Prot. Bind. (% free)” below) in data set [3] (n = 1) came out at 2.0 % free; in data set [3] (n = 1, listed as 6g’) it was 3.7 % free. Besides, the microsomal CLint at 1 μM in data set [4] is above 300 µL/min/mg. Also, in data set [4], the “CLint HLM (intrinsic clearance in human liver microsomes)” value (from here on “CLint HLM”) is below 3.0 µL/min/mg. Further, the results for the “CLint Rat Hep. (intrinsic clearance in rat hepatocytes)” value in data set [5] and in data set [5] (listed as 6g’) were above 300 μL/min/10^6 and 4.2 μL/min/10^6, respectively.

Consider `CCOC(=O)C1(c2cccc(-c3ncc4c(n3)n(CC(=O)N(CC)Cc3ccccc3)c(=O)n4C)c2)COC1` [6h], for which the solubility at 18 h in data set [1] (setting [6]) is 58 µM (≈ 30.7 µg/mL); in data set [1], above 1000 µM. For the same compound, in data set [2] (setting [7]), the “LogD (octanol)” value is -1.0. Further, the logD in data set [2] (setting [8]) worked out at 3.1. Besides, the “Prot. Bind. (% free)” value in data set [3] (n = 1) turned out to be 14.0 % free. The microsomal CLint at 1 μM in data set [4] was above 300 µL/min/mg. The “CLint HLM” value in data set [4] was found to be 4.6 µL/min/mg. Further, the results for the “CLint Rat Hep. (intrinsic clearance in rat hepatocytes)” value in data set [5] and in data set [5] (listed as 6h’) were above 300 μL/min/10^6 and 19.3 μL/min/10^6, respectively.

With `CCN(Cc1ccccc1)C(=O)Cn1c(=O)n(C)c2cnc(-c3cccc(C4(C(=O)OC)CCOC4)c3)nc21` (stereo not shown) [6i], the solubility at 18 h is 104 µM (≈ 55.1 µg/mL) in data set [1] (setting [6]) and above 1000 µM in data set [1]. Also, the “LogD (octanol)” value in data set [2] (setting [7]) is reported as -0.7. The same compound showed a logD in data set [2] (setting [8]) of 2.9. The “Prot. Bind. (% free)” value in data set [3] (n = 1) turned out to be 7.8 % free; in data set [3] (n = 1, listed as 6i’), 5.9 % free. Moreover, in data set [4], the microsomal CLint at 1 μM was above 300 µL/min/mg. Also, in data set [4], the “CLint HLM” value is below 3.0 µL/min/mg. In addition, the “CLint Rat Hep. (intrinsic clearance in rat hepatocytes)” value is above 300 μL/min/10^6 in data set [5] and 12.9 μL/min/10^6 in data set [5] (listed as 6i’).

For the compound `CCN(Cc1ccccc1)C(=O)Cn1c(=O)n(C)c2cnc(-c3cccc(C4(C(=O)OCc5ccccc5)CN(C(=O)OC(C)(C)C)C4)c3)nc21` [6j], the solubility at 18 h in data set [1] (setting [6]) was below 2.4 µM; in data set [1] it was 910 µM (≈ 629 µg/mL). For the same compound, in data set [2] (setting [7]), the “LogD (octanol)” value was above 3.6. Besides, the “Prot. Bind. (% free)” value in data set [3] (n = 1) was below 0.1 % free; in data set [3] (n = 1, listed as 6j’), 0.8 % free. For the same compound, in data set [4], the microsomal CLint at 1 μM is above 300 µL/min/mg. For the same compound, in data set [4], the “CLint HLM” value is 7.6 µL/min/mg. The “CLint Rat Hep. (intrinsic clearance in rat hepatocytes)” value in data set [5] is above 300 μL/min/10^6; in data set [5] (listed as 6j’) it was 17.2 μL/min/10^6.

For `CCN(Cc1ccccc1)C(=O)Cn1c(=O)n(C)c2cnc(-c3cccc(C4(C(=O)OCc5ccccc5)CCN(C(=O)OC(C)(C)C)CC4)c3)nc21` [6k], the solubility at 18 h came out at 6 µM (≈ 4.31 µg/mL) in data set [1] (setting [6]) and 806 µM (≈ 579 µg/mL) in data set [1]. In addition, the “LogD (octanol)” value in data set [2] (setting [7]) is listed as above 3.2. In addition, in data set [3] (n = 1), the “Prot. Bind. (% free)” value is on record as below 0.3 % free. Further, in data set [4], the microsomal CLint at 1 μM was above 300 µL/min/mg. Moreover, the “CLint HLM” value in data set [4] stood at 24.1 µL/min/mg. Also, the “CLint Rat Hep. (intrinsic clearance in rat hepatocytes)” value in data set [5] stood at 157 μL/min/10^6; in data set [5] (listed as 6k’) it was 18.0 μL/min/10^6.

The values are drawn from paper PMC11026381, “Late-stage meta-C–H alkylation of pharmaceuticals to modulate biological properties and expedite molecular optimisation in a single step” (Nature Communications, 2024).
